# From US11779597B2, “Method of treating Parkinson's and other neurodegenerative diseases” (Vector Vitale IP LLC, priority 2019, dated 2023)
# Tests used:
# normal human fibroblasts = assay: Metabolic activity of cells (MTT assay); type: cell-based; conditions: 72 hours, control = 100% of living cells
# Method: In vitro assessment of the effects of E2+^85Rbe on metabolic activity of normal human fibroblasts (MTT assay).
# Proliferative and metabolic activity of cells was determined by the colorimetric method.
# The metabolic activity of the cells (i.e., the number of living cells) was assessed by MTT staining.
# 24 hours after the last reagent, the cells were seeded at a concentration of 1×10^4 cells/well in wells of a 96-well plate in complete DMEM nutrient medium with 10% FBS and […]. The cells were cultured in a humidified atmosphere at 5% CO2 and 37° C. for 24 hours. After 24 hours, various doses of experimental substances were added to the respective wells. The cells were incubated at 37° C. and 5% CO2 for an additional 72 hours.
# Upon completion of the incubation with the preparations, the proliferative and metabolic activity of the cells in the experiment was evaluated by the colorimetric method by staining MTT cells:
# 10 μl of the MTT solution (5 mg/ml of the dye in phosphate-buffered saline) was added to each well of the plate; the plate was incubated in a CO2 incubator at 37° C. for 3 hours. After that, the medium was removed from the wells, and the formed tetraformazan crystals were dissolved in 100 μl of dimethylsulfoxide.
# When MTT was used, the results were evaluated using a multi-well spectrophotometer at an excitation wavelength of 540 nm. The percentage of viable cells was calculated by the formula: IR=(A 540(experiment)/A540(control))×100%.
# [1] = tested on: human T-lymphocytes (CD3+); conditions: cited from earlier work
# [2] = according to the published data
smiles,measurement,setting,value
Cc1ccc(S(=O)(=O)[N-]c2ccccc2NC(=O)c2ccccc2)cc1.[Rb+] [E2+Rb reference drug],"Metabolic activity of cells, %",normal human fibroblasts; 2.5 μg/ml,128.2 ± 8.3%
same,"Metabolic activity of cells, %",normal human fibroblasts; 5 μg/ml,103.4 ± 9.3%
same,"Metabolic activity of cells, %",normal human fibroblasts; 10 μg/ml,104.6 ± 14.2%
same,"Metabolic activity of cells, %",normal human fibroblasts; 20 μg/ml,96.8 ± 9.8%
same,"Metabolic activity of cells, %",normal human fibroblasts; 38 μg/ml,98.8 ± 7.1%
same,"Metabolic activity of cells, %",normal human fibroblasts; 75 μg/ml,97.7 ± 7.5%
same,"Metabolic activity of cells, %",normal human fibroblasts; 150 μg/ml,99.3 ± 3.2%
[Cl-].[Cl-].[Zn+2] [zinc chloride],proliferation of unstimulated T-cells,[1]; [2],has no effect
same,costimulatory effect on T-cell proliferation,[1]; published data,costimulatory effects
[Cl-].[Rb+] [rubidium chloride],proliferation of both resting and activated lymphocytes,[1]; [2],inhibitory effect
